# According to ChEMBL document CHEMBL3885881, “DrugMatrix”:
# Species on record: Rattus norvegicus
# Assay: DrugMatrix - Regimen: Daily Repeat
# Type: toxicity, organism-based, Sprague-Dawley
# Set-up: regimen Daily Repeat, gender Male, age 6-8 weeks
# Conditions: in vivo, po, route oral GAVAGE, vehicle .5 % CMC; for TOTAL PROTEIN / ALANINE AMINOTRANSFERASE / ALBUMIN / ALKALINE PHOSPHATASE / ASPARTATE AMINOTRANSFERASE / BLOOD UREA NITROGEN / CARBON DIOXIDE / CHLORIDE / CHOLESTEROL / CREATINE PHOSPHOKINASE / CREATININE / GLUCOSE / LACTATE DEHYDROGENASE / LIPASE / POTASSIUM / SODIUM / TOTAL BILIRUBIN: tissue Plasma; for ABSOLUTE BASOPHIL / ABSOLUTE EOSINOPHIL / ABSOLUTE LYMPHOCYTE / ABSOLUTE MONOCYTE / ABSOLUTE SEGMENTED NEUTROPHIL / BASOPHIL / EOSINOPHIL / ERYTHROCYTE COUNT / HEMATOCRIT / HEMOGLOBIN / LEUKOCYTE COUNT / LYMPHOCYTE / MEAN CORPUSCULAR HEMOGLOBIN / MEAN CORPUSCULAR HEMOGLOBIN CONCENTRATION / MEAN CORPUSCULAR VOLUME / MONOCYTE / NEUTROPHIL / NUCLEATED RED BLOOD CELLS / PLATELET COUNT: tissue Blood
# [1] = 150 mg/kg, 120 h, dose level Low, time 5 day
# [2] = 2000 mg/kg, 72 h, dose level High, time 3 day
# [3] = 2000 mg/kg, 120 h, dose level High, time 5 day
compound,measurement,setting,value
C[C@@H]1CC[C@H]2[C@@H](C)C(=O)O[C@@H]3O[C@@]4(C)CC[C@@H]1[C@]32OO4 [ARTEMISININ],TOTAL PROTEIN,"150 mg/kg, 72 h, dose level Low, time 3 day",6.7 G/DL
same,ABSOLUTE BASOPHIL,[1],0 CELLS/uL
same,ABSOLUTE EOSINOPHIL,[1],0 CELLS/uL
same,ABSOLUTE LYMPHOCYTE,[1],11615.67 CELLS/uL
same,ABSOLUTE MONOCYTE,[1],298.33 CELLS/uL
same,ABSOLUTE SEGMENTED NEUTROPHIL,[1],986 CELLS/uL
same,BASOPHIL,[1],0%
same,EOSINOPHIL,[1],0%
same,ERYTHROCYTE COUNT,[1],5.22 x10E6/uL
same,HEMATOCRIT,[1],33.07%
same,HEMOGLOBIN,[1],12.77 G/DL
same,LEUKOCYTE COUNT,[1],12.9 x10E3/uL
same,LYMPHOCYTE,[1],90%
same,MEAN CORPUSCULAR HEMOGLOBIN,[1],24.43 pg
same,MEAN CORPUSCULAR HEMOGLOBIN CONCENTRATION,[1],38.63 G/DL
same,MEAN CORPUSCULAR VOLUME,[1],63.33 fL
same,MONOCYTE,[1],2.33%
same,NEUTROPHIL,[1],7.67%
same,NUCLEATED RED BLOOD CELLS,[1],0 /100WBC
same,PLATELET COUNT,[1],1315 x10E3/uL
same,ALANINE AMINOTRANSFERASE,[1],48.67 u/L
same,ALBUMIN,[1],3.93 G/DL
same,ALKALINE PHOSPHATASE,[1],408.33 u/L
same,ASPARTATE AMINOTRANSFERASE,[1],87.67 u/L
same,BLOOD UREA NITROGEN,[1],18 mg/dL
same,CARBON DIOXIDE,[1],27 mmol/L
same,CHLORIDE,[1],101 MEQ/L
same,CHOLESTEROL,[1],71.67 mg/dL
same,CREATINE PHOSPHOKINASE,[1],464 u/L
same,CREATININE,[1],0.19 mg/dL
same,GLUCOSE,[1],139.33 mg/dL
same,LACTATE DEHYDROGENASE,[1],476 u/L
same,LIPASE,[1],10 u/L
same,POTASSIUM,[1],6.65 MEQ/L
same,SODIUM,[1],141.93 MEQ/L
same,TOTAL BILIRUBIN,[1],0.2 mg/dL
same,TOTAL PROTEIN,[1],5.93 G/DL
same,ABSOLUTE BASOPHIL,[2],0 CELLS/uL
same,ABSOLUTE EOSINOPHIL,[2],274 CELLS/uL
same,ABSOLUTE LYMPHOCYTE,[2],15228 CELLS/uL
same,ABSOLUTE MONOCYTE,[2],318.67 CELLS/uL
same,BASOPHIL,[2],0%
same,EOSINOPHIL,[2],1.67%
same,ERYTHROCYTE COUNT,[2],5.42 x10E6/uL
same,HEMATOCRIT,[2],33.43%
same,HEMOGLOBIN,[2],13.03 G/DL
same,LEUKOCYTE COUNT,[2],16.97 x10E3/uL
same,LYMPHOCYTE,[2],89%
same,MEAN CORPUSCULAR HEMOGLOBIN,[2],24.07 pg
same,MEAN CORPUSCULAR HEMOGLOBIN CONCENTRATION,[2],39 G/DL
same,MEAN CORPUSCULAR VOLUME,[2],61.67 fL
same,MONOCYTE,[2],2%
same,NEUTROPHIL,[2],7.33%
same,NUCLEATED RED BLOOD CELLS,[2],0 /100WBC
same,PLATELET COUNT,[2],1460 x10E3/uL
same,ALANINE AMINOTRANSFERASE,[2],59.67 u/L
same,ALBUMIN,[2],4 G/DL
same,ALKALINE PHOSPHATASE,[2],390 u/L
same,ASPARTATE AMINOTRANSFERASE,[2],112.33 u/L
same,BLOOD UREA NITROGEN,[2],19.67 mg/dL
same,CARBON DIOXIDE,[2],23.67 mmol/L
same,CHLORIDE,[2],101.67 MEQ/L
same,CHOLESTEROL,[2],97.67 mg/dL
same,CREATINE PHOSPHOKINASE,[2],581.33 u/L
same,CREATININE,[2],0.25 mg/dL
same,GLUCOSE,[2],144.33 mg/dL
same,LACTATE DEHYDROGENASE,[2],387.67 u/L
same,LIPASE,[2],12.33 u/L
same,POTASSIUM,[2],6.36 MEQ/L
same,SODIUM,[2],142.67 MEQ/L
same,TOTAL BILIRUBIN,[2],0.2 mg/dL
same,TOTAL PROTEIN,[2],6 G/DL
same,ABSOLUTE BASOPHIL,[3],0 CELLS/uL
same,ABSOLUTE EOSINOPHIL,[3],156.67 CELLS/uL
same,ABSOLUTE LYMPHOCYTE,[3],13145.33 CELLS/uL
same,ABSOLUTE MONOCYTE,[3],96 CELLS/uL
same,ABSOLUTE SEGMENTED NEUTROPHIL,[3],868.67 CELLS/uL
same,BASOPHIL,[3],0%
same,EOSINOPHIL,[3],1%
same,ERYTHROCYTE COUNT,[3],5.52 x10E6/uL
same,HEMATOCRIT,[3],33.57%
same,HEMOGLOBIN,[3],13.27 G/DL
same,LEUKOCYTE COUNT,[3],14.27 x10E3/uL
same,LYMPHOCYTE,[3],92%
same,MEAN CORPUSCULAR HEMOGLOBIN,[3],24.07 pg
same,MEAN CORPUSCULAR HEMOGLOBIN CONCENTRATION,[3],39.53 G/DL
same,MEAN CORPUSCULAR VOLUME,[3],60.87 fL
same,MONOCYTE,[3],0.67%
same,NEUTROPHIL,[3],6.33%
same,NUCLEATED RED BLOOD CELLS,[3],0.33 /100WBC
same,PLATELET COUNT,[3],1230 x10E3/uL
same,ALANINE AMINOTRANSFERASE,[3],52.67 u/L
same,ALBUMIN,[3],4.1 G/DL
same,ALKALINE PHOSPHATASE,[3],299.67 u/L
same,ASPARTATE AMINOTRANSFERASE,[3],83.33 u/L
same,BLOOD UREA NITROGEN,[3],19.33 mg/dL
same,CARBON DIOXIDE,[3],28.67 mmol/L
same,CHLORIDE,[3],104 MEQ/L
same,CHOLESTEROL,[3],75.33 mg/dL
same,CREATINE PHOSPHOKINASE,[3],308.33 u/L
same,CREATININE,[3],0.23 mg/dL
same,GLUCOSE,[3],133 mg/dL
same,LACTATE DEHYDROGENASE,[3],153.67 u/L
same,LIPASE,[3],10.33 u/L
same,POTASSIUM,[3],6.54 MEQ/L
same,SODIUM,[3],147.4 MEQ/L
same,TOTAL BILIRUBIN,[3],0.17 mg/dL
same,TOTAL PROTEIN,[3],6.1 G/DL
